In patent publication US12692249B2, “WDR5 inhibitors and modulators” (Vanderbilt University, priority 2019, dated 2026) one finds GI50 and Ki data, which are given here for 13 compounds.

Experiment [1] deals with MV4:11 human cancer cell lines. As to the kind of experiment: Cellular viability / anti-proliferative assay, CellTiter-Glo, 5 day protocol. Type of experiment: cell-based. The conditions noted are these: Homo sapiens, MV4-11, 120 h, read-out: GI50 on cellular proliferation of MV4:11 human cancer cell lines. The gist of the method:
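MV-4-11 cells in IMDM with 10% FBS, 200 cells/well, exposed 5 days to 22 two-fold dilutions from 30 μM, final DMSO 0.3%. Viability read by CellTiter-Glo luminescence; GI50 from sigmoidal dose-response fit, mean of at least two replicates.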

The target of the next experiment is WDR5 (Homo sapiens, UniProt P61964). The experiment is described as follows: TR-FRET competition binding assay, displacement of 10mer-Thr-FAM MLL peptide probe from His-tagged WDR5. The conditions noted are these: WDR5-His tag (residues 24-334) 2 nM; 10mer-Thr-FAM 150 nM; 60 min, room temperature; read-out: Ki for Inhibition of WDR5 by TR-FRET assay.
Setting [2] is: MV4:11 cells, 5 day incubation, CellTiter-Glo, mean of at least two replicates.

Each structure is given as a SMILES string. Like-named read-outs stand apart in the source and are kept apart here. Where only a bound is given, the exact number is not on record here.

In the case of `CCc1cc(C(=O)NCC2CN(C(C)=O)C2)c2nccc(N3CCc4c(cc(Cn5ccnc5)cc4-c4cn(C)nc4C(F)(F)F)C3=O)c2c1` [Example 218, 4-(7-((1H-Imidazol-1-yl)methyl)-5-(1-methyl-3-(trifluoromethyl)-1H-pyrazol-4-yl)-1-oxo-3,4-dihydroisoquinolin-2(1H)-yl)-N-((1-acetylazetidin-3-yl)methyl)-6-ethylquinoline-8-carboxamide], the GI50 in experiment [1] (setting [2]) worked out at 21 nM. In addition, the Ki at WDR5 is < 0.02 nM.

In the case of `CCc1cc(C(=O)NCC2CN(C(=O)c3ccncc3)C2)c2nccc(N3CCc4c(cc(Cn5ccnc5)cc4-c4cn(C)nc4C(F)(F)F)C3=O)c2c1` [Example 219, 4-(7-((1H-Imidazol-1-yl)methyl)-5-(1-methyl-3-(trifluoromethyl)-1H-pyrazol-4-yl)-1-oxo-3,4-dihydroisoquinolin-2(1H)-yl)-6-ethyl-N-((1-isonicotinoylazetidin-3-yl)methyl)quinoline-8-carboxamide], in experiment [1] (setting [2]), the GI50 was < 20 nM. Moreover, the Ki on WDR5 was < 0.02 nM.

Consider `CCc1cc(C(=O)NCC2CN(C(=O)c3cscn3)C2)c2nccc(N3CCc4c(cc(Cn5ccnc5)cc4-c4cn(C)nc4C(F)(F)F)C3=O)c2c1` [Example 220, 4-(7-((1H-Imidazol-1-yl)methyl)-5-(1-methyl-3-(trifluoromethyl)-1H-pyrazol-4-yl)-1-oxo-3,4-dihydroisoquinolin-2(1H)-yl)-6-ethyl-N-((1-(thiazole-4-carbonyl)azetidin-3-yl)methyl)quinoline-8-carboxamide], for which the GI50 in experiment [1] (setting [2]) is < 20 nM. The Ki at WDR5 was < 0.02 nM.

As for `COc1cnc2cc(C)cc(N3CCc4c(cc(Cn5ccnc5N)cc4-c4cn(C)nc4C(F)(F)F)C3=O)c2c1` [Example 221, 7-((2-Amino-1H-imidazol-1-yl)methyl)-2-(3-methoxy-7-methylquinolin-5-yl)-5-(1-methyl-3-(trifluoromethyl)-1H-pyrazol-4-yl)-3,4-dihydroisoquinolin-1(2H)-one], the GI50 in experiment [1] (setting [2]) is < 20 nM. The Ki at WDR5 amounted to 0.024 nM.

Take `CCc1cc(C(=O)NC2CN(C(=O)C3CCOCC3)C2)c2nccc(N3CCc4c(cc(Cn5ccnc5)cc4-c4cn(C)nc4C(F)(F)F)C3=O)c2c1` [Example 223, 4-(7-((1H-Imidazol-1-yl)methyl)-5-(1-methyl-3-(trifluoromethyl)-1H-pyrazol-4-yl)-1-oxo-3,4-dihydroisoquinolin-2(1H)-yl)-6-ethyl-N-(1-(tetrahydro-2H-pyran-4-carbonyl)azetidin-3-yl)quinoline-8-carboxamide]: in experiment [1] (setting [2]), the GI50 was < 20 nM. At WDR5, the Ki is < 0.02 nM.

With `CCc1cc(C(=O)NC2CN(C(=O)c3cscn3)C2)c2nccc(N3CCc4c(cc(Cn5ccnc5)cc4-c4cn(C)nc4C(F)(F)F)C3=O)c2c1` [Example 228, 4-(7-((1H-Imidazol-1-yl)methyl)-5-(1-methyl-3-(trifluoromethyl)-1H-pyrazol-4-yl)-1-oxo-3,4-dihydroisoquinolin-2(1H)-yl)-6-ethyl-N-(1-(thiazole-4-carbonyl)azetidin-3-yl)quinoline-8-carboxamide], the GI50 in experiment [1] (setting [2]) was < 20 nM. Also, the inhibition constant Ki at WDR5 is < 0.02 nM.

For the compound `CCc1cc(N)c2nccc(N3CCc4c(cc(Cn5ccnc5)cc4-c4cn(C)nc4C(F)(F)F)C3=O)c2c1` [Example 230, 7-((1H-Imidazol-1-yl)methyl)-2-(8-amino-6-ethylquinolin-4-yl)-5-(1-methyl-3-(trifluoromethyl)-1H-pyrazol-4-yl)-3,4-dihydroisoquinolin-1(2H)-one], the GI50 in experiment [1] was 54 nM. Moreover, the Ki on WDR5 is < 0.02 nM.

Regarding `CCc1cc(-c2cnn(C)c2)c2nccc(N3CCc4c(cc(Cn5ccnc5)cc4-c4cn(C)nc4C(F)(F)F)C3=O)c2c1` [Example 232, 7-((1H-Imidazol-1-yl)methyl)-2-(6-ethyl-8-(1-methyl-1H-pyrazol-4-yl)quinolin-4-yl)-5-(1-methyl-3-(trifluoromethyl)-1H-pyrazol-4-yl)-3,4-dihydroisoquinolin-1(2H)-one], the GI50 in experiment [1] (setting [2]) came out at 38 nM. Also, the Ki on WDR5 was < 0.02 nM.

Take `CCc1cc(C(=O)NCC2CN(C(=O)C3CCOCC3)C2)c2nccc(N3CCc4c(cc(Cn5ccnc5)cc4-c4cn(C)nc4C(F)(F)F)C3=O)c2c1` [Example 233, 4-(7-((1H-Imidazol-1-yl)methyl)-5-(1-methyl-3-(trifluoromethyl)-1H-pyrazol-4-yl)-1-oxo-3,4-dihydroisoquinolin-2(1H)-yl)-6-ethyl-N-((1-(tetrahydro-2H-pyran-4-carbonyl)azetidin-3-yl)methyl)quinoline-8-carboxamide]: in experiment [1] (setting [2]), the GI50 stood at 26 nM. In addition, the Ki at WDR5 is < 0.02 nM.

Consider `CNC(=O)c1cc(N2CCc3c(cc(Cn4ccnc4)cc3-c3cn(C)nc3C(F)(F)F)C2=O)c2cc(OC)ccc2n1` [Example 237, 4-(7-((1H-Imidazol-1-yl)methyl)-5-(1-methyl-3-(trifluoromethyl)-1H-pyrazol-4-yl)-1-oxo-3,4-dihydroisoquinolin-2(1H)-yl)-6-methoxy-N-methylquinoline-2-carboxamide], for which the GI50 in experiment [1] (setting [2]) amounted to 51 nM. Also, the inhibitory constant (Ki) on WDR5 is < 0.02 nM.

With `CCc1cc(CN(C)C(C)=O)c2nccc(N3CCc4c(cc(Cn5ccnc5)cc4-c4cn(C)nc4C(F)(F)F)C3=O)c2c1` [Example 238], the GI50 in experiment [1] (setting [2]) came to 30 nM. Besides, the Ki at WDR5 is < 0.02 nM.

For the compound `CCc1cc(CNC(C)=O)c2nccc(N3CCc4c(cc(Cn5ccnc5)cc4-c4cn(C)nc4C(F)(F)F)C3=O)c2c1` [Example 240, N-((4-(7-((1H-Imidazol-yl)methyl)-5-(1-methyl-3-(trifluoromethyl)-1H-pyrazol-4-yl)-1-oxo-3,4-dihydroisoquinolin-2(1H)-yl)-6-ethylquinolin-8-yl)methyl)acetamide], the GI50 in experiment [1] (setting [2]) turned out to be 23 nM. Also, the Ki on WDR5 is < 0.02 nM.

Regarding `COc1cc(C(=O)NC2CN(C(=O)c3ccncc3)C2)c2nccc(N3CCc4c(cc(Cn5ccnc5)cc4-c4cn(C)nc4C(F)(F)F)C3=O)c2c1` [Example 242, 4-(7-((1H-Imidazol-1-yl)methyl)-5-(1-methyl-3-(trifluoromethyl)-1H-pyrazol-4-yl)-1-oxo-3,4-dihydroisoquinolin-2(1H)-yl)-N-(1-isonicotinoylazetidin-3-yl)-6-methoxyquinoline-8-carboxamide], the GI50 in experiment [1] (setting [2]) amounted to 29 nM. For the same compound, the Ki on WDR5 is < 0.02 nM.
